Experimental data published in PubChem BioAssay (NCI).
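A five-concentration, 48-hour dose response in 96-well plates underlies each endpoint, interpolated linearly between surrounding concentrations. GI50 marks 50% less growth. TGI: total growth inhibition.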

Columns and labels:
Experiment in all cases: NCI tumour cell line growth inhibition, 48 h
SF-539 CNS = tested on: SF-539 CNS
LOX IMVI melanoma = tested on: LOX IMVI melanoma
MCF7 breast = tested on: MCF7 breast
A498 renal = tested on: A498 renal
SN12C renal = tested on: SN12C renal
SR leukemia = tested on: SR leukemia
HS 578T breast = tested on: HS 578T breast
MALME-3M melanoma = tested on: MALME-3M melanoma
SNB-75 CNS = tested on: SNB-75 CNS
MOLT-4 leukemia = tested on: MOLT-4 leukemia
PC-3 prostate = tested on: PC-3 prostate
M14 melanoma = tested on: M14 melanoma
SF-268 CNS = tested on: SF-268 CNS
HCC-2998 colon = tested on: HCC-2998 colon
OVCAR-3 ovarian = tested on: OVCAR-3 ovarian
OVCAR-5 ovarian = tested on: OVCAR-5 ovarian
T-47D breast = tested on: T-47D breast
HCT-15 colon = tested on: HCT-15 colon
SK-MEL-5 melanoma = tested on: SK-MEL-5 melanoma
ACHN renal = tested on: ACHN renal
HT29 colon = tested on: HT29 colon
UACC-257 melanoma = tested on: UACC-257 melanoma
UO-31 renal = tested on: UO-31 renal
786-0 renal = tested on: 786-0 renal
COLO 205 colon = tested on: COLO 205 colon
TK-10 renal = tested on: TK-10 renal
BT-549 breast = tested on: BT-549 breast
OVCAR-8 ovarian = tested on: OVCAR-8 ovarian
SK-MEL-28 melanoma = tested on: SK-MEL-28 melanoma
RXF 393 renal = tested on: RXF 393 renal
K-562 leukemia = tested on: K-562 leukemia
RPMI-8226 leukemia = tested on: RPMI-8226 leukemia
HL-60(TB) leukemia = tested on: HL-60(TB) leukemia
EKVX NSCLC = tested on: EKVX NSCLC
HCT-116 colon = tested on: HCT-116 colon
NCI/ADR-RES ovarian = tested on: NCI/ADR-RES ovarian
NCI-H460 lung = tested on: NCI-H460 lung
SK-OV-3 ovarian = tested on: SK-OV-3 ovarian
KM12 colon = tested on: KM12 colon
SF-295 CNS = tested on: SF-295 CNS
SW-620 colon = tested on: SW-620 colon
OVCAR-4 ovarian = tested on: OVCAR-4 ovarian
NCI-H23 lung = tested on: NCI-H23 lung
MDA-MB-231 breast = tested on: MDA-MB-231 breast
CCRF-CEM leukemia = tested on: CCRF-CEM leukemia
HOP-92 NSCLC = tested on: HOP-92 NSCLC
DU-145 prostate = tested on: DU-145 prostate
UACC-62 melanoma = tested on: UACC-62 melanoma
CAKI-1 renal = tested on: CAKI-1 renal
U251 CNS = tested on: U251 CNS
HOP-62 NSCLC = tested on: HOP-62 NSCLC
SNB-19 CNS = tested on: SNB-19 CNS
NCI-H226 lung = tested on: NCI-H226 lung
MDA-MB-435 = tested on: MDA-MB-435
NCI-H522 lung = tested on: NCI-H522 lung
IGROV1 ovarian = tested on: IGROV1 ovarian
A549 NSCLC = tested on: A549 NSCLC
SK-MEL-2 melanoma = tested on: SK-MEL-2 melanoma

`O=C(NCc1cccnc1)/C(=C\c1ccc(Br)cc1)S(=O)(=O)c1ccccc1` showed a GI50 (SF-539 CNS) of 663 nM, a TGI (SF-539 CNS) of 1610 nM and a GI50 (LOX IMVI melanoma) of 450 nM. The TGI (LOX IMVI melanoma) was 1730 nM, the GI50 (MCF7 breast) was 409 nM and the TGI (MCF7 breast) was 2110 nM. The GI50 (A498 renal) was 1360 nM, the TGI (A498 renal) was 2710 nM and the GI50 (SN12C renal) was 727 nM. For the same molecule, the TGI (SN12C renal) was 2190 nM, the GI50 (SR leukemia) was 309 nM and the TGI (SR leukemia) was 2360 nM. It also gave a GI50 (HS 578T breast) of 1250 nM, a TGI (HS 578T breast) of 5310 nM and a GI50 (MALME-3M melanoma) of 1130 nM. For the same molecule, the TGI (MALME-3M melanoma) was 2580 nM, the GI50 (SNB-75 CNS) was 1050 nM and the TGI (SNB-75 CNS) was 2340 nM. For the same molecule, the GI50 (MOLT-4 leukemia) was 419 nM, the TGI (MOLT-4 leukemia) was 2950 nM and the GI50 (PC-3 prostate) was 1060 nM. It also gave a TGI (PC-3 prostate) of 2610 nM, a GI50 (M14 melanoma) of 1040 nM and a TGI (M14 melanoma) of 2860 nM. It also gave a GI50 (SF-268 CNS) of 1000 nM, a TGI (SF-268 CNS) of 2820 nM and a GI50 (HCC-2998 colon) of 1510 nM. The TGI (HCC-2998 colon) was 3000 nM, the GI50 (OVCAR-3 ovarian) was 419 nM and the TGI (OVCAR-3 ovarian) was 1700 nM. For the same molecule, the GI50 (OVCAR-5 ovarian) was 929 nM, the TGI (OVCAR-5 ovarian) was 2330 nM and the GI50 (T-47D breast) was 1040 nM. For the same molecule, the TGI (T-47D breast) was 3120 nM, the GI50 (HCT-15 colon) was 536 nM and the TGI (HCT-15 colon) was 2270 nM. It also gave a GI50 (SK-MEL-5 melanoma) of 1380 nM, a TGI (SK-MEL-5 melanoma) of 2690 nM and a GI50 (ACHN renal) of 719 nM. For the same molecule, the TGI (ACHN renal) was 1970 nM, the GI50 (HT29 colon) was 514 nM and the TGI (HT29 colon) was 3920 nM. The GI50 (UACC-257 melanoma) was 1250 nM, the TGI (UACC-257 melanoma) was 2680 nM and the GI50 (UO-31 renal) was 904 nM. The TGI (UO-31 renal) was 2210 nM, the GI50 (786-0 renal) was 1150 nM and the TGI (786-0 renal) was 2440 nM. The GI50 (COLO 205 colon) was 1220 nM, the TGI (COLO 205 colon) was 2650 nM and the GI50 (TK-10 renal) was 1500 nM. The TGI (TK-10 renal) was 2910 nM, the GI50 (BT-549 breast) was 913 nM and the TGI (BT-549 breast) was 2210 nM. The GI50 (OVCAR-8 ovarian) was 705 nM, the TGI (OVCAR-8 ovarian) was 3330 nM and the GI50 (SK-MEL-28 melanoma) was 1110 nM. It also gave a TGI (SK-MEL-28 melanoma) of 2550 nM, a GI50 (RXF 393 renal) of 413 nM and a TGI (RXF 393 renal) of 1420 nM. For the same molecule, the GI50 (K-562 leukemia) was 423 nM, the TGI (K-562 leukemia) was 13000 nM and the GI50 (RPMI-8226 leukemia) was 408 nM. The TGI (RPMI-8226 leukemia) was 2430 nM, the GI50 (HL-60(TB) leukemia) was 345 nM and the TGI (HL-60(TB) leukemia) was 2050 nM. For the same molecule, the GI50 (EKVX NSCLC) was 1300 nM, the TGI (EKVX NSCLC) was 2610 nM and the GI50 (HCT-116 colon) was 460 nM. For the same molecule, the TGI (HCT-116 colon) was 1840 nM, the GI50 (NCI/ADR-RES ovarian) was 1750 nM and the TGI (NCI/ADR-RES ovarian) was 5430 nM. For the same molecule, the GI50 (NCI-H460 lung) was 714 nM, the TGI (NCI-H460 lung) was 2290 nM and the GI50 (SK-OV-3 ovarian) was 2700 nM. It also gave a TGI (SK-OV-3 ovarian) of 5970 nM, a GI50 (KM12 colon) of 1530 nM and a TGI (KM12 colon) of 3470 nM. The GI50 (SF-295 CNS) was 1720 nM, the TGI (SF-295 CNS) was 3240 nM and the GI50 (SW-620 colon) was 416 nM. For the same molecule, the TGI (SW-620 colon) was 1850 nM, the GI50 (OVCAR-4 ovarian) was 416 nM and the TGI (OVCAR-4 ovarian) was 1800 nM. It also gave a GI50 (NCI-H23 lung) of 935 nM, a TGI (NCI-H23 lung) of 2300 nM and a GI50 (MDA-MB-231 breast) of 705 nM. It also gave a TGI (MDA-MB-231 breast) of 2100 nM, a GI50 (CCRF-CEM leukemia) of 315 nM and a TGI (CCRF-CEM leukemia) of 4500 nM. It also gave a GI50 (HOP-92 NSCLC) of 745 nM, a TGI (HOP-92 NSCLC) of 2230 nM and a GI50 (DU-145 prostate) of 431 nM. For the same molecule, the TGI (DU-145 prostate) was 1530 nM, the GI50 (UACC-62 melanoma) was 1140 nM and the TGI (UACC-62 melanoma) was 2530 nM. For the same molecule, the GI50 (CAKI-1 renal) was 1020 nM, the TGI (CAKI-1 renal) was 2220 nM and the GI50 (U251 CNS) was 774 nM. The TGI (U251 CNS) was 2230 nM, the GI50 (HOP-62 NSCLC) was 1640 nM and the TGI (HOP-62 NSCLC) was 3630 nM. The GI50 (SNB-19 CNS) was 1430 nM, the TGI (SNB-19 CNS) was 2830 nM and the GI50 (NCI-H226 lung) was 1290 nM. For the same molecule, the TGI (NCI-H226 lung) was 2670 nM, the GI50 (MDA-MB-435) was 477 nM and the TGI (MDA-MB-435) was 1730 nM. The GI50 (NCI-H522 lung) was 380 nM, the TGI (NCI-H522 lung) was 1580 nM and the GI50 (IGROV1 ovarian) was 636 nM. The TGI (IGROV1 ovarian) was 2110 nM, the GI50 (A549 NSCLC) was 1480 nM and the TGI (A549 NSCLC) was 3310 nM. The GI50 (SK-MEL-2 melanoma) was 1430 nM and the TGI (SK-MEL-2 melanoma) was 3030 nM.
